Reference: patent US20100221228A1, “y134.5 Deficient HSV and the MAPK Pathway” (The University of Chicago, priority 2006, published 2010)

Assays:
[1] = tested on: HT1080 cells infected with R3616; test: MEK inhibitor study: immunoblotting of viral proteins and phospho-PKR; type: cell-based, human
Protocol: (§1) Inhibitor studies—For experiments employing the known MEK inhibitor, PD98059, HT1080 cells were starved over night in serum-free medium and then exposed to 40 μM of PD98059 (EMD Biosciences, San Diego, Calif.), or DMSO (1:1000 dilution) 6 hours prior to, and during, infection. At 12 hours post-infection, whole cell lysates were created as described above for immunoblotting.
To determine if MEK mediates the observed mutant Ras-dependent suppression of PKR activation and resultant accumulation of viral proteins in HT1080 cells infected with mutant virus R3616, the relative expressions of representative a (ICP27), β (U142) and γ2 (glycoprotein C) viral proteins in cells treated with a specific chemical inhibitor of MEK-1 (PD98059) were compared. Replicate cultures of HT1080 cells were serum-starved overnight prior to exposure to equal volumes of DMSO or PD98059 (40 μM) for 6 hours prior to infection with R3616 mutant virus (10 PFU/cell). DMSO or drug treatment was then continued until the cells were harvested at 12 hours post-infection. The cells were then lysed and the lysates were subjected to electrophoresis in denaturing polyacrylamide gels, followed by transferring to PVDF membranes and reacting with antibody to ICP27, UL42, or gC. […] To test whether the decrease in the accumulation of gC correlated with activation of PKR, the electrophoretically separated lysates were also probed with antibody to the auto-phosphorylated form of PKR (P-Thr446). The presence of PD98059 prior to, and during, infection with R3616 […] the amount of activated PKR in HT1080 cells (FIG. 6, panel B).

[2] = tested on: HT1080 cells infected with R3616; test: MEK inhibitor study: R3616 yield in HT1080 cells with PD98059 or DMSO; type: cell-based, human
Protocol: as §1
Finally, to determine if MEK inhibition affects viral replication, DMSO or PD98059 (40 μM) was added to replicate cultures of HT1080 cells 6 hours prior to, and during, infection with R3616 (1 PFU/cell).

[3] = PD98059 40 μM, R3616 10 PFU/cell, 12 hours post-infection

COc1cccc(-c2cc(=O)c3ccccc3o2)c1N [PD98059]
amount of activated PKR (P-Thr446) ([1]; PD98059 40 μM prior to and during infection with R3616): increased
accumulation of ICP27 and UL42 proteins [1, 3]: slight effect
amounts of gC that accumulated [1, 3]: very dramatic decrease
yield of R3616 lower than in the presence of DMSO ([2]; PD98059 40 μM): approximately 15 fold
yield of R3616 mutant virus ([2]; in the presence of PD98059 40 μM, 6 hours prior to and during infection, 1 PFU/cell, 36 hours): 1.67×10^5 PFU/ml
